What was measured:
Format in all cases: cell-based
[1] = system: Staphylococcus aureus (JCM-2151); experiment: Viability assay (survival rate) in cow's milk medium; conditions: for antimicrobial activity of the compound added without antimicrobial peptide or lactoferrin hydrolysate (in words): compound alone; for effect of the coexisting compound on the antimicrobial activity of the lactoferrin hydrolysate (in words): with lactoferrin hydrolysate 1
Experimental: The colonies grown on the culture medium were scraped by a platinum loop and cultivated in 1% peptone (by Difco Company) culture medium for several hours at 37° C., and the resultant microbial culture at logarithmic phase was used as the preculture in a serial concentration of 3×10^8 /ml.
A quantity of the resultant solutions of the samples were selectively mixed with a quantity of the basal medium, thereby test media for the respective tests were prepared in the combinations and eventual concentrations as specified in the respective tests.
Utilizing the samples (5), (7), (8), (9), (10), (14), (15), (17), (18) and (19), test media were prepared in the same manner as in the preparation of the test media containing sample (3) and the like, except that the aqueous solution (in the cases of samples (5) and (7), aqueous suspensions) were not dealt with sterilization filters.
To 2 ml aliquots of test media prepared in (3-1) (supra), […] aliquots of the preculture of Staphylococcus aureus prepared in (1) (2. Method, supra) were added, then incubated at 37° C. for 1 hour, 200 μl aliquots of the resultant cultures were taken out and diluted with 1% peptone solution in a series of 10^n respectively, 110 μl aliquots of the resultant dilution series were spread onto plates of standard agar culture medium, and after incubation at 37° C. for 24 hours the number of colonies grown on the plates were counted (Test. Colony Count).
Control coloney counts 1 were determined in the same manner as in the determination of the test coloney counts, except that […] aliquots of the preculture of Staphylococcus aureus prepared in (1) (2. Method, supra) were added to 2 ml aliquots of the respective control media 1 prepared in (3-2) (supra). Furthermore, control coloney counts 2 were determined in the same manner as in the determination of the test coloney counts, except that […] aliquots of the preculture of Staphylococcus aureus prepared in (1) (supra) were added to 2 ml aliquots of the respective control media 1 prepared in (3-2) (supra).
Survival rate 1=(Test Colony Count/Control Colony Count 1)×100
Survival rate 2=(Control Colony Count 2/Control Colony Count 1)×100
(Note: In the tables shown hereinafter, vulues of survival rate 2 are indicated in the row where the concentration of antimicrobial peptide or lactoferrin hydrolysate is 0.)

Escherichia coli 0-111 = experiment: Test for antimicrobial activity (turbidity): growth inhibiting concentration of antibiotics
Experimental: (§1) Precultures of test microorganisms to be used in the tests described hereunder were prepared in such a manner that: from the frozen preservation of dispersions of test microorganisms, a loop of the respective strains of the microorganisms were taken out and spread onto TRI PETIT CASE SOYA AGAR MEDIA (by BBL Company), and incubated at 37° C. for 16 hours; the colonies grown on the culture media were scraped by a platinum loop and cultivated in 2.1% Mueller-Hington Broth (by Difco Company) respectively for several hours at 37° C. The resultant microbial cultures at logarithmic phase in 3×10^8 /ml of microbial concentration were used as the precultures.
(§2) The test media to be used in the respective tests were prepared in such a manner that: aqueous solutions in a predetermined concentration of the lactoferrin hydrolysates or the lactoferrin-derived antimicrobial peptides of (1) and (2) in Preparation of Samples (supra), as well as the samples of antibiotics of (3) (supra) were respectively sterilized with filters (by Advantec Company); then a quantity of the resultant solutions of respective samples were selectively added to a quantity of basal medium (Mueller-Hington Broth) prepared in the eventual concentration of 2.1%, thereby combinations of the samples and their concentrations in the respective test media were adjusted as specified in the respective tests.
(§3) Antimicrobial activity was examined as follows: A quantity of the respective precultures prepared in (1) immediately above was diluted with 2.1% Mueller-Hington Broth to result in 2×10^6 /ml of microbial concentration; 100 μl aliquots of the resultant liquid were added to 100 μl aliquots of one of the test media as specified in the respective test; the resultant media were incubated at 37° C. for 16 hours; then the turbidity of the resultant culture broths were measured thereby antimicrobial activity was examined.
(§4) Components in the test and control media and eventual concentrations thereof were adjusted by properly combining 0 mg, 0.4 mg, 1.6 mg and 6.4 mg/ml of lactoferrin hydrolysate of (1) (in Preparation of Samples, supra). or 0 μg, 16 μg, 64 μg, and 256 μg/ml of lactoferrin-derived antimicrobial peptides of (2) (in Preparation of Samples, supra), and 0 μg, 0.01 μg, 0.1 μg, 1 μg, and 10 μg/ml of antibiotics of (3) (supra), then antimicrobial activity of the combined use of the components against Escherichia coli 0-111 and Staphylococcus aureus (JCM2151) as well as growth inhibiting concentrations of the antibiotics were investigated.

[2] = system: Staphylococcus aureus JCM2151; experiment: as above; conditions: for MIC: Staphylococcus aureus
Experimental: as §1, §2, §3, §4

[3] = Escherichia coli, 0111, antimicrobial peptide (Seq. ID No. 27) 0 μg/ml
[4] = Escherichia coli, 0111, antimicrobial peptide (Seq. ID No. 27) 16 μg/ml
[5] = Escherichia coli, 0111, antimicrobial peptide (Seq. ID No. 27) 64 μg/ml
[6] = Escherichia coli, 0111, antimicrobial peptide (Seq. ID No. 27) 256 μg/ml
[7] = lactoferrin hydrolysate 0 mg/ml
[8] = lactoferrin hydrolysate 0.4 mg/ml
[9] = lactoferrin hydrolysate 1.6 mg/ml
[10] = lactoferrin hydrolysate 6.4 mg/ml
[11] = JCM2151, antimicrobial peptide (Seq. ID No. 27) 0 μg/ml
[12] = JCM2151, antimicrobial peptide (Seq. ID No. 27) 16 μg/ml
[13] = JCM2151, antimicrobial peptide (Seq. ID No. 27) 64 μg/ml
[14] = JCM2151, antimicrobial peptide (Seq. ID No. 27) 256 μg/ml
[15] = antimicrobial peptide (Seq. ID No. 27) 0 μg/ml
[16] = antimicrobial peptide (Seq. ID No. 27) 16 μg/ml
[17] = antimicrobial peptide (Seq. ID No. 27) 64 μg/ml
[18] = antimicrobial peptide (Seq. ID No. 27) 256 μg/ml

O=C1O[C@H]([C@@H](O)CO)C(O)=C1O [ascorbic acid, Ascorbic Acid]
antimicrobial activity of the compound added without antimicrobial peptide or lactoferrin hydrolysate (in words) [1]: no antimicrobial activity was observed | effect of the coexisting compound on the antimicrobial activity of the antimicrobial peptide (in words) ([1]; with antimicrobial peptide Seq. ID No. 27): augments the antimicrobial activity of the peptide | effect of the coexisting compound on the antimicrobial activity of the lactoferrin hydrolysate (in words) [1]: augments the antimicrobial activity of the lactoferrin hydrolysate 1

C[C@H](CCC(=O)O)[C@H]1CC[C@H]2[C@@H]3[C@H](O)C[C@@H]4C[C@H](O)CC[C@]4(C)[C@H]3C[C@H](O)[C@]12C [cholic acid, Cholic Acid]
survival rate ([1]; Test 22: peptide 0, 1-monolauroyl-rac-glycerol 0, cholic acid 1 mg/ml): 92% | antimicrobial activity of the compound added without antimicrobial peptide or lactoferrin hydrolysate (in words) [1]: no antimicrobial activity was observed | effect of the coexisting compound on the antimicrobial activity of the antimicrobial peptide (in words) ([1]; with antimicrobial peptide Seq. ID No. 26): further augments the antimicrobiaI activity of the peptide | effect of the coexisting compound on the antimicrobial activity of the lactoferrin hydrolysate (in words) [1]: augments the antimicrobial activity of the lactoferrin hydrolysate 1

NC[C@H]1O[C@H](O[C@H]2[C@H](O)[C@@H](O[C@H]3O[C@H](CO)[C@@H](O)[C@H](N)[C@H]3O)[C@H](N)C[C@@H]2N)[C@H](O)[C@@H](O)[C@@H]1O [kanamycin]
MIC (Escherichia coli 0-111; [3]): > 1 µg/mL | MIC (Escherichia coli 0-111; [4]): > 1 µg/mL | MIC (Escherichia coli 0-111; [5]): 1 µg/mL | MIC (Escherichia coli 0-111; [6]): 0.01 µg/mL | Growth inhibiting Concentration of antibiotics (Escherichia coli 0-111; [7]): > 1 µg/mL | Growth inhibiting Concentration of antibiotics (Escherichia coli 0-111; [8]): > 1 µg/mL | Growth inhibiting Concentration of antibiotics (Escherichia coli 0-111; [9]): 1 µg/mL | Growth inhibiting Concentration of antibiotics (Escherichia coli 0-111; [10]): 0.1 µg/mL | MIC [2, 11]: > 1 µg/mL | MIC [2, 12]: > 1 µg/mL | MIC [2, 13]: 1 µg/mL | MIC [2, 14]: 0.01 µg/mL | Growth inhibiting Concentration of antibiotics [2, 7]: > 1 µg/mL | Growth inhibiting Concentration of antibiotics [2, 8]: > 1 µg/mL | Growth inhibiting Concentration of antibiotics [2, 9]: > 1 µg/mL | Growth inhibiting Concentration of antibiotics [2, 10]: 0.1 µg/mL

COc1cccc(OC)c1C(=O)N[C@@H]1C(=O)N2[C@@H]1SC(C)(C)[C@@H]2C(=O)O [staphcillin]
MIC (Escherichia coli 0-111; [3]): > 1 µg/mL | MIC (Escherichia coli 0-111; [4]): > 1 µg/mL | MIC (Escherichia coli 0-111; [5]): 1 µg/mL | MIC (Escherichia coli 0-111; [6]): 0.01 µg/mL | Growth inhibiting Concentration of antibiotics (Escherichia coli 0-111; [7]): > 1 µg/mL | Growth inhibiting Concentration of antibiotics (Escherichia coli 0-111; [8]): > 1 µg/mL | Growth inhibiting Concentration of antibiotics (Escherichia coli 0-111; [9]): > 1 µg/mL | Growth inhibiting Concentration of antibiotics (Escherichia coli 0-111; [10]): 0.1 µg/mL | MIC [2, 11]: > 1 µg/mL | MIC [2, 12]: > 1 µg/mL | MIC [2, 13]: 1 µg/mL | MIC [2, 14]: 0.01 µg/mL | Growth inhibiting Concentration of antibiotics [2, 7]: > 1 µg/mL | Growth inhibiting Concentration of antibiotics [2, 8]: > 1 µg/mL | Growth inhibiting Concentration of antibiotics [2, 9]: > 1 µg/mL | Growth inhibiting Concentration of antibiotics [2, 10]: 0.1 µg/mL

gentamicin
Growth inhibiting Concentration of antibiotics (Escherichia coli 0-111; [15]): 1 µg/mL | Growth inhibiting Concentration of antibiotics (Escherichia coli 0-111; [16]): 1 µg/mL | Growth inhibiting Concentration of antibiotics (Escherichia coli 0-111; [17]): 0.1 µg/mL | Growth inhibiting Concentration of antibiotics (Escherichia coli 0-111; [18]): 0.1 µg/mL | Growth inhibiting Concentration of antibiotics (Escherichia coli 0-111; [7]): 1 µg/mL | Growth inhibiting Concentration of antibiotics (Escherichia coli 0-111; [8]): 1 µg/mL | Growth inhibiting Concentration of antibiotics (Escherichia coli 0-111; [9]): 0.1 µg/mL | Growth inhibiting Concentration of antibiotics (Escherichia coli 0-111; [10]): 0.1 µg/mL | Growth inhibiting Concentration of antibiotics [2, 15]: 1 µg/mL | Growth inhibiting Concentration of antibiotics [2, 16]: 0.1 µg/mL | Growth inhibiting Concentration of antibiotics [2, 17]: 0.1 µg/mL | Growth inhibiting Concentration of antibiotics [2, 18]: 0.1 µg/mL | Growth inhibiting Concentration of antibiotics [2, 7]: 1 µg/mL | Growth inhibiting Concentration of antibiotics [2, 8]: 0.1 µg/mL | Growth inhibiting Concentration of antibiotics [2, 9]: 0.1 µg/mL | Growth inhibiting Concentration of antibiotics [2, 10]: 0.1 µg/mL

polymyxin B
Growth inhibiting Concentration of antibiotics (Escherichia coli 0-111; [15]): > 1 µg/mL | Growth inhibiting Concentration of antibiotics (Escherichia coli 0-111; [16]): > 1 µg/mL | Growth inhibiting Concentration of antibiotics (Escherichia coli 0-111; [17]): 0.1 µg/mL | Growth inhibiting Concentration of antibiotics (Escherichia coli 0-111; [18]): 0.1 µg/mL | Growth inhibiting Concentration of antibiotics (Escherichia coli 0-111; [7]): > 1 µg/mL | Growth inhibiting Concentration of antibiotics (Escherichia coli 0-111; [8]): > 1 µg/mL | Growth inhibiting Concentration of antibiotics (Escherichia coli 0-111; [9]): 0.1 µg/mL | Growth inhibiting Concentration of antibiotics (Escherichia coli 0-111; [10]): 0.01 µg/mL | Growth inhibiting Concentration of antibiotics [2, 15]: > 1 µg/mL | Growth inhibiting Concentration of antibiotics [2, 16]: 0.1 µg/mL | Growth inhibiting Concentration of antibiotics [2, 17]: 0.1 µg/mL | Growth inhibiting Concentration of antibiotics [2, 18]: 0.1 µg/mL | Growth inhibiting Concentration of antibiotics [2, 7]: > 1 µg/mL | Growth inhibiting Concentration of antibiotics [2, 8]: 0.1 µg/mL | Growth inhibiting Concentration of antibiotics [2, 9]: 0.1 µg/mL | Growth inhibiting Concentration of antibiotics [2, 10]: 0.1 µg/mL
